Structures can show the parent of a compound that is named as a salt.
test system: IL-17A secreted from antiCD3/CD28 stimulated Peripheral Blood Mononuclear cells (PBMC); experiment: Peripheral Blood Mononucleocyte Cell Assay (PBMC Assay - IL-17); type: cell-based; conditions: Homo sapiens, 48 h, IL-17A release, read-out: mean pIC50 (converted)
Description: Peripheral Blood Mononucleocvte Cell Assay (PBMC Assay—IL-17) […]
This assay is designed to measure levels of IL-17A secreted from antiCD3/CD28 stimulated frozen Peripheral Blood Mononuclear cells (PBMC) isolated from human blood with the aim of identifying inhibitors of IL-17A release.
2. The compounds for screening are dispensed into a master plate at 10 mM top concentration which are serially diluted 1:3 across 11 points in DMSO, then 500 nL is transferred into a 384-well flat-bottomed Greiner plate to which 50 uL of cell suspension is added: for the single shot screening the highest concentration of compound is 10^−5M; for 11 point full curve dose response studies the highest concentration is 10^−4 M.
As a low control, DMSO (as supplied, for example, by VWR) (final concentration 1%) in column 6 (16 points).
As a high control, 5-(4-fluorophenyl)-2-ureidothiophene-3-carboxamide (obtainable from, for example, Sigma) at a final concentration of 10^−4 M in DMSO should be used in column 18 (16 points).
9. Make the cell suspension at the concentration 8×10^5 cells/mL to give a final number of 40,000 cells/well.
1. Add well mixed CD3/CD28 Dynabeads (as supplied, for example, by Dynal) to achieve ratio bead:cell=2:1 (ie. a dilution of 1 in 20). Mix thoroughly.
2. Dispense the suspension into the 384 Assay Plates using Multidrop (50 uL per well). If the volume of cell suspension is large, mix the suspension after dispensing into every other plate.
3. Cover the plates with the lids and place them to the humidified incubator (37° C., 5% CO2) for 48 hours.
1. Transfer 10 uL of supernatants from assay plates to the MSD plates using Cybiwell. Ensure that all wells are covered with the solution. Tap the plate gently, if some of the wells are not covered with the supernatant.
3. Add 10 uL of MSD IL-17 detecting antibody using multidrop (1 ug/mL in D-PBS without Ca^2+ and Mg^2+ (supplied, for example, by Gibco)).
4. Cover the plates with adhesive foil and incubated with shaking for 3 hours at room temperature
7. Add 35 uL of MSD Read Buffer T×2 using multidrop.
8. Read plates on MSD MA6000 reader using the 384 well plate protocol as per manufacturer's instructions.

Question: `Cc1ccc(N(CC(C)C)S(=O)(=O)c2ccc(OC[C@H]3NCCO[C@@H]3C)cc2)c(C)c1` [Example E36] was tested. Which IC50 did it give?
Answer: < 1 µM

Question: For `Cc1ccc(N(CC(C)C)S(=O)(=O)c2ccc(C(O)CN3CCOCC3)cc2)c(C)c1` (single isomer, unassigned) [Example E122, N-(2,4-dimethylphenyl)-4-(1-hydroxy-2-morpholinoethyl)-N-isobutylbenzenesulfonamide], which IC50 is on record?
Answer: < 1 µM

Question: With `Cc1ccc(N(CC(C)C)S(=O)(=O)c2ccc(OCC3CCNCC3)cc2)c(C)c1` [Example E8, N-(2,4-dimethylphenyl)-N-isobutyl-4-(piperidin-4-ylmethoxy)benzenesulfonamide, Trifluoroacetic acid salt] as the compound, how does the IC50 read?
Answer: < 1 µM

Question: `Cc1ccc(N(CC(C)C)S(=O)(=O)c2ccc(C(CO)N3CCOCC3)c(C)c2)c(C)c1` (stereo not shown) [Example E89, N-(2,4-dimethylphenyl)-4-(2-hydroxy-1-morpholinoethyl)-N-isobutyl-3-methylbenzenesulfonamide] was tested. Which IC50 did it give?
Answer: < 1 µM

Question: How did the IC50 turn out when `Cc1ccc(N(CC(C)C)S(=O)(=O)c2ccc(N3CCOCC3)cc2)c(C)c1` [Example E33] was run?
Answer: < 1 µM

Question: Which IC50 does the source give for `Cc1ccc(N(CC(C)C)S(=O)(=O)c2ccc(OCC3(C)COCC(=O)N3)cc2)c(C)c1` (stereo not shown) [Example E11] here?
Answer: < 1 µM

Question: `Cc1ccc(N(CC(C)C)S(=O)(=O)c2ccc(C(O)CN3CCOCC3)cc2)c(C)c1` (stereo not shown) [Example E120, N-(2,4-dimethylphenyl)-4-(1-hydroxy-2-morpholinoethyl-N-isobutylbenzenesulfonamide hydrochloride] was tested. Which IC50 did it give?
Answer: < 1 µM

Question: With `Cc1ccc(N(CC(C)C)S(=O)(=O)c2ccc(C(O)CN3CCOCC3)c(Cl)c2)c(C)c1` (stereo not shown) [Example E84] as the compound, how does the IC50 read?
Answer: < 1 µM

Question: Which IC50 does the source give for `Cc1ccc(N(CC(C)C)S(=O)(=O)c2ccc(C(O)CN3CCOCC3)c(C)c2)c(C)c1` (stereo not shown) [Example E90, N-(2,4-dimethylphenyl)-4-(1-hydroxy-2-morpholinoethyl)-N-isobutyl-3-methylbenzenesulfonamide] here?
Answer: < 1 µM

Question: Which IC50 does the source give for `CCc1ccc(N(CC(C)C)S(=O)(=O)c2ccc(C(O)CN3CCOCC3)cc2)cc1` (stereo not shown) [Example E113, N-(4-ethylphenyl)-4-(1-hydroxy-2-morpholinoethyl)-N-isobutylbenzenesulfonamide] here?
Answer: < 1 µM

Question: `Cc1ccc(N(CC(C)C)S(=O)(=O)c2ccc(C(O)CN3CCOCC3)c(F)c2)c(C)c1` (stereo not shown) [Example E87] was tested. Which IC50 did it give?
Answer: < 1 µM

Question: `Cc1ccc(N(CC(C)C)S(=O)(=O)c2ccc(OCC3CCC(C)CC3)cc2)c(C)c1` (stereo not shown) [Example E47] was tested. Which IC50 did it give?
Answer: > 100 µM

Question: `Cc1ccc(N(CC(C)C)S(=O)(=O)c2ccc(C(O)CN3CCOCC3)cc2C)c(C)c1` (stereo not shown) [Example E88] was tested. Which IC50 did it give?
Answer: < 1 µM

test system: IL-17A mRNA expression; experiment: Ex-vivo human skin model, IL-17A mRNA expression; type: cell-based; conditions: four different donors, compound 10 μM
Description: (§1) Fresh ex vivo human skin from healthy bariatric patients, that underwent abdominoplasty skin removal, was de-fatted and dermatomed at 750 μm. Dermatomed skin was incubated twice for 5-10 minutes at room temperature in PBS containing a antibiotic/antimycotic solution: Fungizone (Invitrogen #15290018), PSG (Fisher #BW17718R) and Gentamicin (Invitrogen #15750060). Skin was treated aseptically from this point on. Individual skin samples were obtained by 10 mm punch biopsy and placed in a 0.4 μm PCF membrane transwell (Millicell #PIHP01250) containing 30 μl of a 64% bovine collagen solution. After a 30 minute incubation at 37° C., which allows the collagen solution time to set, skin samples on transwells were transferred to 6-well plates (1 sample per well) and the lower chamber filled with 1 ml complete media (Cornification Media)+hydrocortisone (final concentration of 0.4 μg/ml) with or without test compounds at 10 μM (day −3) and allowed to rest overnight (16-18 h) at 37° C. Next, media was aspirated from the lower chamber, replaced with 1 ml complete media without hydrocortisone and incubated at 37° C. for 1 h. This constituted a ‘wash’ step. Following the hydrocortisone washout, media was again aspirated from the lower chamber and replaced with 1.0 ml complete media without hydrocortisone with or without GSK compounds at 10 μM (day −2). Cultures were incubated at 37° C. in a humidified chamber and media was refreshed one more day (day-1). The following day (day-0), cultures were stimulated for 24 h with a freshly made Th17 cytokine cocktail (CD3, 1 μg/ml, CD28, 2 μg/ml, IL-1b, 10 ng/ml, IL-6, 5 ng/ml, TGFb, 1 ng/ml, IL-21, 10 ng/ml, anti-IL-4, 1 μg/ml and anti-INFg, 1 μg/ml) with or without test compounds at 10 μM. Upon harvest (day +1), skin samples were minced with a razor blade and transferred to 1.5 ml RNAse-free tubes with 1 ml RNAlater solution until later analysis by RT-PCR (stored at −80 C).
(§2) Total RNA was isolated from about 30-40 mg of tissue using Qiagen's (Cat #74106) Mini RNA Isolation kit. Briefly, tissue was homogenized in the Precellys-24 machine using 300 μL of RLT buffer supplemented with 1% 2-Beta-Mercapto-Ethanol at 6300 rpm for 30 seconds for 6 cycles with a 2-minute ice break. 600 μL of water containing Proteinase K was added to the homogenate and digested at 55 C for 15 minutes. Digested tissue was spun down for 3 minutes at 10,000×g and the supernantant was used for RNA isolation using Qiagen's RNeasy mini columns according to manufacturer's protocol. 100 ng of RNA was used as template in a 20 μL PCR volume using Applied Biosciences RNA-to-CT 1 Step kit (AB Catalog #4392938) as well as the specific TaqMan probe for each gene to be quantified. Life Technologies FAM labeled Probes Catalog Numbers are as follows: ACTb=Hs01060665_g1, IL-17A=Hs00174383_m1, IL-17F=Hs00369400_m1, IL-22=Hs01574154_m1. All probes used (except for ACTb) expand an Exon. Applied Biosciences' Master Mix has a ROX dye internal control. OneStepPlus PCR machine was used for both the RT step and the 40 amplification cycles. RNA levels of gene of interest's relative expression were calculated using the Delta Delta CT formula.
(§3) First delta: Normalized to ACTb gene expression
(§4) Second delta: Normalized to sample 13 (Day 0+DMSO) for the gene of interest.

Question: `CCc1ccc(N(CC(C)C)S(=O)(=O)c2ccc(OCC3CCOCC3)c(CO)c2)cc1` [Example E124, N-(4-ethylphenyl)-3-(hydroxymethyl)-N-isobutyl-4-((tetrahydro-2H-pyran-4-yl)methoxy)benzenesulfonamide] was tested. Which “gene transcription of il17a (result in words)” value did it give?
Answer: inhibited

test system: IL-17F mRNA expression; experiment: Ex-vivo human skin model, IL-17F mRNA expression; type: cell-based; conditions: four different donors, compound 10 μM
Description: as §1, §2, §3, §4

Question: How did the “gene transcription of il17f (result in words)” value turn out when `CCc1ccc(N(CC(C)C)S(=O)(=O)c2ccc(OCC3CCOCC3)c(CO)c2)cc1` [Example E124, N-(4-ethylphenyl)-3-(hydroxymethyl)-N-isobutyl-4-((tetrahydro-2H-pyran-4-yl)methoxy)benzenesulfonamide] was run?
Answer: inhibited

test system: IL-22 mRNA expression; experiment: Ex-vivo human skin model, IL-22 mRNA expression; type: cell-based; conditions: four different donors, compound 10 μM
Description: as §1, §2, §3, §4

Question: How did the “gene transcription of il22 (result in words)” value turn out when `CCc1ccc(N(CC(C)C)S(=O)(=O)c2ccc(OCC3CCOCC3)c(CO)c2)cc1` [Example E124, N-(4-ethylphenyl)-3-(hydroxymethyl)-N-isobutyl-4-((tetrahydro-2H-pyran-4-yl)methoxy)benzenesulfonamide] was run?
Answer: inhibited

Reference: US9428452B2, “Compounds” (Glaxo Group Limited, priority 2012, dated 2016)
